Source: ChEMBL document CHEMBL5550123, “Discovery of novel pyridone-benzamide derivatives possessing a 1-methyl-2-benzimidazolinone moiety as potent EZH2 inhibitors for the treatment of B-cell lymphomas” (Bioorg Med Chem, 2024)

Columns and labels:
KARPAS-422 [1] = assay: Induction of apoptosis in human KARPAS-422 cells assessed as late apoptotic cells at 10 nM incubated for 72 hrs again compound diluted in growth medium measured after 96 hrs by annexin-V FITC and propidium iodide based flow cytometry analysis (reference value: 0.74%); type: functional; conditions: time 168 hrs
[2] = Metabolic stability in human liver microsomes assessed as half life at 1 uM measured upto 60 mins in presence of NADPH by LC-MS/MS analysis; type: ADME, Microsome
KARPAS-422 [3] = assay: Induction of apoptosis in human KARPAS-422 cells assessed as late apoptotic cells at 20 nM incubated for 72 hrs again compound diluted in growth medium measured after 96 hrs by annexin-V FITC and propidium iodide based flow cytometry analysis (reference value: […]%); type: functional; conditions: time 168 hrs
KARPAS-422 [4] = assay: Induction of cell cycle arrest in human KARPAS-422 cells assessed as accumulation of cells at G2 phase at 5 nM incubated for 72 hrs again compound diluted in growth medium measured after 96 hrs by propidium iodide staining based flow cytometry analysis (reference value: 16.41%); type: functional; conditions: time 168 hrs
KARPAS-422 [5] = assay: Induction of cell cycle arrest in human KARPAS-422 cells assessed as accumulation of cells at S phase at 5 nM incubated for 72 hrs again compound diluted in growth medium measured after 96 hrs by propidium iodide staining based flow cytometry analysis (reference value: 35.89%); type: functional; conditions: time 168 hrs
KARPAS-422 [6] = assay: Induction of apoptosis in human KARPAS-422 cells assessed as viable cells at 10 nM incubated for 72 hrs again compound diluted in growth medium measured after 96 hrs by annexin-V FITC and propidium iodide based flow cytometry analysis (reference value: 95.57%); type: functional; conditions: time 168 hrs, read-out: Activity
KARPAS-422 [7] = assay: Antiproliferative activity against human KARPAS-422 cells assessed as inhibition of cell growth measured after 72 hrs by CCK-8 method; type: functional, cell-based; conditions: KARPAS-422, 72 h
KARPAS-422 [8] = assay: Induction of apoptosis in human KARPAS-422 cells assessed as late apoptotic cells at 5 nM incubated for 72 hrs again compound diluted in growth medium measured after 96 hrs by annexin-V FITC and propidium iodide based flow cytometry analysis (reference value: […]%); type: functional; conditions: time 168 hrs
KARPAS-422 [9] = assay: Induction of cell cycle arrest in human KARPAS-422 cells assessed as accumulation of cells at G2 phase at 10 nM incubated for 72 hrs again compound diluted in growth medium measured after 96 hrs by propidium iodide staining based flow cytometry analysis (reference value: 16.41%); type: functional; conditions: time 168 hrs
KARPAS-422 [10] = assay: Induction of apoptosis in human KARPAS-422 cells assessed as early apoptotic cells at 10 nM incubated for 72 hrs again compound diluted in growth medium measured after 96 hrs by annexin-V FITC and propidium iodide based flow cytometry analysis (reference value: 2.62%); type: functional; conditions: time 168 hrs
KARPAS-422 [11] = assay: Induction of cell cycle arrest in human KARPAS-422 cells assessed as accumulation of cells at G1 phase at 20 nM incubated for 72 hrs again compound diluted in growth medium measured after 96 hrs by propidium iodide staining based flow cytometry analysis (reference value: 47.71%); type: functional; conditions: time 168 hrs
KARPAS-422 [12] = assay: Induction of cell cycle arrest in human KARPAS-422 cells assessed as accumulation of cells at S phase at 10 nM incubated for 72 hrs again compound diluted in growth medium measured after 96 hrs by propidium iodide staining based flow cytometry analysis (reference value: 35.89%); type: functional; conditions: time 168 hrs
[13] = Inhibition of EZH2 Y641N mutant (unknown origin) preincubated for 15 mins followed by substrate addition and measured after 45 mins by AlphaLISA assay; design: species or system Homo sapiens
KARPAS-422 [14] = assay: Induction of apoptosis in human KARPAS-422 cells assessed as early apoptotic cells at 2.5 nM incubated for 72 hrs again compound diluted in growth medium measured after 96 hrs by annexin-V FITC and propidium iodide based flow cytometry analysis (reference value: 2.62%); type: functional; conditions: time 168 hrs
KARPAS-422 [15] = assay: Induction of cell cycle arrest in human KARPAS-422 cells assessed as accumulation of cells at S phase at 20 nM incubated for 72 hrs again compound diluted in growth medium measured after 96 hrs by propidium iodide staining based flow cytometry analysis (reference value: 35.89%); type: functional; conditions: time 168 hrs
KARPAS-422 [16] = assay: Induction of apoptosis in human KARPAS-422 cells assessed as late apoptotic cells at 2.5 nM incubated for 72 hrs again compound diluted in growth medium measured after 96 hrs by annexin-V FITC and propidium iodide based flow cytometry analysis (reference value: 0.74%); type: functional; conditions: time 168 hrs
KARPAS-422 [17] = assay: Induction of apoptosis in human KARPAS-422 cells assessed as viable cells at 20 nM incubated for 72 hrs again compound diluted in growth medium measured after 96 hrs by annexin-V FITC and propidium iodide based flow cytometry analysis (reference value: 95.57%); type: functional; conditions: time 168 hrs, read-out: Activity
KARPAS-422 [18] = assay: Induction of cell cycle arrest in human KARPAS-422 cells assessed as accumulation of cells at G2 phase at 20 nM incubated for 72 hrs again compound diluted in growth medium measured after 96 hrs by propidium iodide staining based flow cytometry analysis (reference value: 16.41%); type: functional; conditions: time 168 hrs
KARPAS-422 [19] = assay: Induction of apoptosis in human KARPAS-422 cells assessed as late apoptotic cells at 20 nM incubated for 72 hrs again compound diluted in growth medium measured after 96 hrs by annexin-V FITC and propidium iodide based flow cytometry analysis (reference value: 0.74%); type: functional; conditions: time 168 hrs
KARPAS-422 [20] = assay: Induction of cell cycle arrest in human KARPAS-422 cells assessed as accumulation of cells at G1 phase at 2.5 nM incubated for 72 hrs again compound diluted in growth medium measured after 96 hrs by propidium iodide staining based flow cytometry analysis (reference value: 47.71%); type: functional; conditions: time 168 hrs
KARPAS-422 [21] = assay: Induction of cell cycle arrest in human KARPAS-422 cells assessed as accumulation of cells at G1 phase at 10 nM incubated for 72 hrs again compound diluted in growth medium measured after 96 hrs by propidium iodide staining based flow cytometry analysis (reference value: 47.71%); type: functional; conditions: time 168 hrs
KARPAS-422 [22] = assay: Induction of cell cycle arrest in human KARPAS-422 cells assessed as accumulation of cells at G1 phase at 5 nM incubated for 72 hrs again compound diluted in growth medium measured after 96 hrs by propidium iodide staining based flow cytometry analysis (reference value: 47.71%); type: functional; conditions: time 168 hrs
[23] = Inhibition of EZH2 Y641F mutant (unknown origin) preincubated for 15 mins followed by substrate addition and measured after 45 mins by AlphaLISA assay; design: species or system Homo sapiens
KARPAS-422 [24] = assay: Induction of cell cycle arrest in human KARPAS-422 cells assessed as accumulation of cells at G2 phase at 2.5 nM incubated for 72 hrs again compound diluted in growth medium measured after 96 hrs by propidium iodide staining based flow cytometry analysis (reference value: 16.41%); type: functional; conditions: time 168 hrs
KARPAS-422 [25] = assay: Induction of apoptosis in human KARPAS-422 cells assessed as early apoptotic cells at 5 nM incubated for 72 hrs again compound diluted in growth medium measured after 96 hrs by annexin-V FITC and propidium iodide based flow cytometry analysis (reference value: 2.62%); type: functional; conditions: time 168 hrs
KARPAS-422 [26] = assay: Induction of apoptosis in human KARPAS-422 cells assessed as viable cells at 5 nM incubated for 72 hrs again compound diluted in growth medium measured after 96 hrs by annexin-V FITC and propidium iodide based flow cytometry analysis (reference value: 95.57%); type: functional; conditions: time 168 hrs, read-out: Activity
KARPAS-422 [27] = assay: Induction of apoptosis in human KARPAS-422 cells assessed as viable cells at 2.5 nM incubated for 72 hrs again compound diluted in growth medium measured after 96 hrs by annexin-V FITC and propidium iodide based flow cytometry analysis (reference value: 95.57%); type: functional; conditions: time 168 hrs, read-out: Activity
KARPAS-422 [28] = assay: Induction of apoptosis in human KARPAS-422 cells incubated for 72 hrs again compound diluted in growth medium measured after 96 hrs by annexin-V FITC and propidium iodide based flow cytometry analysis; type: functional, cell-based; conditions: dose 2.5-20 nM, time 168.0 hrs
[29] = Metabolic stability in human liver microsomes assessed as intrinsic clearance at 1 uM measured upto 60 mins in presence of NADPH by LC-MS/MS analysis; type: ADME, Microsome; conditions: read-out: CLH
KARPAS-422 [30] = assay: Induction of apoptosis in human KARPAS-422 cells assessed as early apoptotic cells at 20 nM incubated for 72 hrs again compound diluted in growth medium measured after 96 hrs by annexin-V FITC and propidium iodide based flow cytometry analysis (reference value: 2.62%); type: functional; conditions: time 168 hrs
KARPAS-422 [31] = assay: Induction of apoptosis in human KARPAS-422 cells assessed as late apoptotic cells at 5 nM incubated for 72 hrs again compound diluted in growth medium measured after 96 hrs by annexin-V FITC and propidium iodide based flow cytometry analysis (reference value: 0.74%); type: functional; conditions: time 168 hrs
KARPAS-422 [32] = assay: Induction of cell cycle arrest in human KARPAS-422 cells assessed as accumulation of cells at S phase at 2.5 nM incubated for 72 hrs again compound diluted in growth medium measured after 96 hrs by propidium iodide staining based flow cytometry analysis (reference value: 35.89%); type: functional; conditions: time 168 hrs
KARPAS-422 [33] = assay: Induction of apoptosis in human KARPAS-422 cells assessed as late apoptotic cells at 10 nM incubated for 72 hrs again compound diluted in growth medium measured after 96 hrs by annexin-V FITC and propidium iodide based flow cytometry analysis (reference value: […]%); type: functional; conditions: time 168 hrs
KARPAS-422 [34] = assay: Induction of apoptosis in human KARPAS-422 cells assessed as late apoptotic cells at 2.5 nM incubated for 72 hrs again compound diluted in growth medium measured after 96 hrs by annexin-V FITC and propidium iodide based flow cytometry analysis (reference value: […]%); type: functional; conditions: time 168 hrs

half-life at 1 µM [2]: 2.96 h
IC50 (KARPAS-422 [7]): 3.52 nM
IC50 [13]: 0.08 nM
IC50 [23]: 0.03 nM
microsomal CLint at 1 µM [29]: 7.87 µL/min/mg
Compound: CCN(c1cc(-c2ccc3c(c2)n(C)c(=O)n3C2CCN(C)CC2)cc(C(=O)NCc2c(C)cc(C)[nH]c2=O)c1C)C1CCC(N(C)C)CC1 (centres undefined)
Activity (KARPAS-422 [1]): 5.47%
Activity (KARPAS-422 [3]): 6.81%
Activity (KARPAS-422 [4]): 15.64%
Activity (KARPAS-422 [5]): 28.46%
viability at 0.01 µM (KARPAS-422 [6]): 81.8%
Activity (KARPAS-422 [8]): 2.96%
Activity (KARPAS-422 [9]): 14.6%
Activity (KARPAS-422 [10]): 7.93%
Activity (KARPAS-422 [11]): 65.03%
Activity (KARPAS-422 [12]): 26.31%
Activity (KARPAS-422 [14]): 4.23%
Activity (KARPAS-422 [15]): 24.24%
Activity (KARPAS-422 [16]): 2.57%
viability at 0.02 µM (KARPAS-422 [17]): 73.8%
Activity (KARPAS-422 [18]): 10.74%
Activity (KARPAS-422 [19]): 12.28%
Activity (KARPAS-422 [20]): 52.26%
Activity (KARPAS-422 [21]): 59.1%
Activity (KARPAS-422 [22]): 55.91%
Activity (KARPAS-422 [24]): 16.32%
Activity (KARPAS-422 [25]): 2.29%
viability at 0.005 µM (KARPAS-422 [26]): 86.7%
viability at 0.0025 µM (KARPAS-422 [27]): 89.3%
Activity (KARPAS-422 [28]): Dose-Dependent Effect
Activity (KARPAS-422 [30]): 7.09%
Activity (KARPAS-422 [31]): 8.08%
Activity (KARPAS-422 [32]): 31.43%
Activity (KARPAS-422 [33]): 4.8%
Activity (KARPAS-422 [34]): 3.84%
